From patent US20240190855A1 (Relay Therapeutics, Inc., priority 2021, published 2024) come the findings set out here.

The subject of the first test is CDK2-independent (SKOV3, COV504, COV644) versus CDK2-dependent (COV318, OVCAR3, HCC1569) cell lines. The experiment in a line: Cell proliferation selectivity assay (CyQUANT Direct Cell Proliferation Assay). To be noted: mean of IC50 ratios between each CDK2-independent versus CDK2-dependent cell line; 120 hours incubation. It is filed as cell-based. As for the experimental part:
Compounds described herein were also tested in cell proliferation selectivity assays. OVCAR3, HCC1569, and SKOV3 cell lines were obtained from ATCC and cultured as recommended by supplier. COV318, COV504, and COV644 cell lines were obtained from Sigma-Aldrich and were cultured as recommended by supplier. The genetic background and dependency of each cell line was determined using publicly available databases: cBioPortal and DepMap. […] All six cell lines are CDK1-dependent given that CDK1 is an essential gene. Proliferation assay was carried out by seeding cells into 384-well plates at predetermined density (ranging from 150 to 1500 cells per well) in corresponding culture media, followed by brief centrifugation at 1000×g, and culturing cells for 24 hours at 37° C., 5% CO2. The following day, compounds were serially diluted (1l-point, 3-fold dilution scheme with 20 μM as top concentration) and dispensed directly onto cells using Echo 555 acoustic liquid handler (Labcyte). The cells were incubated with the compounds at 37° C., 5% CO2 for 120 hours. Relative number of viable cells in each well was determined using CyQUANT Direct Cell Proliferation Assay Kit (Invitrogen) per manufacturers protocol. The plates were read on EnVision 2105 multimode plate reader (Perkin Elmer) using FITC filter set. Dose response curve fitting and IC50 calculation was done using Genedata Screener software. Proliferation selectivity (i.e. selectivity index) for individual compound was derived as a mean of its IC50 ratios between each CDK2-independent versus CDK2-dependent cell line.
For the molecule `CC(C)NC(=O)O[C@@H]1CC[C@H](c2cc(Nc3ncnc4ncccc34)n[nH]2)C1` (single isomer, unassigned) [Example I-4], the “Proliferation selectivity Index” value was determined as 45.05. For the molecule `COCc1cc2c(Nc3cc([C@H]4CC[C@@H](OC(=O)NC(C)C)C4)[nH]n3)nccn2n1` (single isomer, unassigned) [Example I-10], the “Proliferation selectivity Index” value came to 24.36. As for `CC(C)NC(=O)O[C@@H]1CC[C@H](c2cc(Nc3nccc4nccn34)n[nH]2)C1` (single isomer, unassigned) [Example I-11], the “Proliferation selectivity Index” value turned out to be 24.26.

Regarding `CC(C)NC(=O)O[C@@H]1CC[C@H](c2cc(Nc3nccn4nccc34)n[nH]2)C1` (single isomer, unassigned) [Example I-17], the “Proliferation selectivity Index” value is reported as 21.85. On the same count and under the same terms, under `COCc1nc2ccnc(Nc3cc([C@@H]4CC[C@H](OC(=O)NC(C)C)C4)[nH]n3)c2s1` (single isomer, unassigned) [Example I-19] stands 20.52. Still for that read-out and setting: with `CC(C)NC(=O)O[C@H]1CC[C@@H](c2cc(Nc3ncnc4ncccc34)n[nH]2)C1` (single isomer, unassigned) [Example I-20] the figure was 20.15. Consider `Cc1cc(CC(=O)Nc2cc([C@@H]3CC[C@H](Oc4nscc4C4CC4)C3)[nH]n2)on1` (single isomer, unassigned) [Example I-21], for which the “Proliferation selectivity Index” value was 19.98. As for `CC(C)NC(=O)O[C@@H]1CC[C@H](c2cc(Nc3ncnc4ncsc34)n[nH]2)C1` (single isomer, unassigned) [Example I-24], the “Proliferation selectivity Index” value came out at 19.46.

For the molecule `CC(C)NC(=O)O[C@H]1CC[C@@H](c2cc(Nc3nccc4ncsc34)n[nH]2)C1` (single isomer, unassigned) [Example I-28], the “Proliferation selectivity Index” value came to 18.45.

In the next test the target is T1, CDK2/Cyclin E complex (Homo sapiens, UniProt P24941).
T1 construct: purchased Eurofins 14-475
Kind of test: CDK2/Cyclin E fluorescence-based microfluidic mobility shift assay (CDK2 Biochemical Caliper Assay). To be noted: read-out: Biochemical CDK2/CyclinE Caliper IC50. In outline: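 Microfluidic mobility-shift readout after EDTA termination measured phosphorylation of fluorescent FL Peptide 18 (1.5 uM final) in a 20 hr room-temperature reaction. Compounds were tested at 11 concentrations (3-fold).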
Turning to `Cn1nc(OC(F)(F)Cl)cc1C(=O)Nc1cc([C@H]2C[C@@H](OC(=O)NC3(C)CC3)CO2)[nH]n1` [Example 882], the IC50 was not above 100 nM. Consider `Cn1nc(C=O)cc1C(=O)Nc1cc([C@H]2C[C@@H](OC(=O)NC3(C)CC3)CO2)[nH]n1` [Example 883], for which the IC50 is not above 100 nM. As to `Cn1nc(COC(F)(F)F)cc1C(=O)Nc1cc([C@H]2C[C@@H](OC(=O)NC34C5C6C7C5C3C7C64)CO2)[nH]n1` (stereo partly drawn) [Example 884], the IC50 was not above 100 nM. Take `COCC1(NC(=O)O[C@H]2CO[C@@H](c3cc(NC(=O)c4cc(COC(F)(F)F)nn4C)n[nH]3)C2)CC1` [Example 885]: the IC50 is not above 100 nM. On to `CC1(NC(=O)O[C@H]2CO[C@@H](c3cc(NC(=O)c4cnn(CCOC(F)(F)F)c4)n[nH]3)C2)CC1` [Example 886], for which the IC50 is not above 100 nM.

For `Cn1nc(OCC(F)F)cc1C(=O)Nc1cc([C@H]2C[C@@H](OC(=O)NC34CC(C3)C4)CO2)n[nH]1` [Example 887], the IC50 is not above 100 nM.

As for `Cn1nc(COC(F)(F)F)cc1C(=O)Nc1cc([C@H]2C[C@@H](OC(=O)NC3(C)COC3)CO2)[nH]n1` [Example 888], the IC50 was not above 100 nM. Same read-out and setting: under `Cn1nc(COC(F)(F)F)cc1C(=O)Nc1cc([C@@H]2C[C@H](OC(=O)NC3(C)COC3)CO2)[nH]n1` [Example 893] stands not above 100 nM; under `COCC1(NC(=O)O[C@@H]2CO[C@H](c3cc(NC(=O)c4cc(COC(F)(F)F)nn4C)n[nH]3)C2)CC1` [Example 894], not above 100 nM. As to `COCc1cc(C(=O)Nc2cc([C@H]3C[C@@H](OC(=O)NC4(C)CC4)CO3)[nH]n2)n(C(F)(F)F)n1` [Example 895], the IC50 is not above 100 nM. Turning to `COCc1cc(C(=O)Nc2cc([C@H]3C[C@@H](Oc4[nH]ncc4C(C)C)CO3)[nH]n2)n(C)n1` [Example 896], the IC50 is not above 100 nM. With `CC1(NC(=O)O[C@H]2CO[C@@H](c3cc(Nc4nccn5nc(COC(F)(F)F)cc45)n[nH]3)C2)CC1` [Example 897], the IC50 is not above 100 nM.

On to `CC1(NC(=O)O[C@H]2CO[C@H](c3cc(Nc4nccc5nc(C(F)(F)F)cn45)n[nH]3)C2)CC1` [Example 898], for which the IC50 lay in the range of 250 to 1000 nM. On to `CC1(NC(=O)O[C@H]2CO[C@@H](c3cc(Nc4nccc5nc(C(F)(F)F)cn45)n[nH]3)C2)CC1` [Example 901], for which the IC50 is not above 100 nM.

In the case of `Cn1nc(CO)cc1C(=O)Nc1cc([C@H]2C[C@@H](OC(=O)NC3(C)CC3)CO2)[nH]n1` [Example 902], the IC50 was in the range of 250 to 1000 nM. For the molecule `COCc1cn2c(Nc3cc([C@@H]4C[C@@H](OC(=O)NC5(C)CC5)CO4)[nH]n3)nccc2n1` [Example 904], the IC50 is 1000 to 100000 nM. With `COCc1cn2c(Nc3cc([C@H]4C[C@@H](OC(=O)NC5(C)CC5)CO4)[nH]n3)nccc2n1` [Example 906], the IC50 was not above 100 nM. For `Cn1nc(OCC(F)F)cc1C(=O)Nc1cc([C@@H]2C[C@H](OC(=O)NC34CC(C3)C4)CO2)[nH]n1` [Example 907], the IC50 was not above 100 nM. On the same count and under the same terms, with `Cn1nc(OCC(F)(F)F)cc1C(=O)Nc1cc([C@@H]2C[C@H](OC(=O)NC34CC(C3)C4)CO2)[nH]n1` [Example 908] the figure was not above 100 nM. Same read-out and setting: under `C[C@@H](NC(=O)O[C@@H]1CO[C@H](c2cc(NC(=O)c3cc(OCC(F)F)nn3C)n[nH]2)C1)C1CC1` [Example 909] stands not above 100 nM. With `C[C@@H](NC(=O)O[C@@H]1CO[C@H](c2cc(NC(=O)c3cc(OCC(F)(F)F)nn3C)n[nH]2)C1)C1CC1` [Example 910], the IC50 was not above 100 nM. Same read-out and setting: with `COC12CC(NC(=O)O[C@@H]3CO[C@H](c4cc(NC(=O)c5cc(COC(F)(F)F)nn5C)n[nH]4)C3)(C1)C2` [Example 911] the figure was not above 100 nM; with `Cn1nc(COC(F)(F)F)cc1C(=O)Nc1cc([C@@H]2C[C@H](OC(=O)NC34CC(C#N)(C3)C4)CO2)[nH]n1` [Example 912], not above 100 nM; with `COC12CC(NC(=O)O[C@H]3CO[C@@H](c4cc(NC(=O)c5cc(COC(F)(F)F)nn5C)n[nH]4)C3)(C1)C2` [Example 913], not above 100 nM. In the case of `Cn1nc(COC(F)(F)F)cc1C(=O)Nc1cc([C@H]2C[C@@H](OC(=O)NC34CC(C#N)(C3)C4)CO2)[nH]n1` [Example 914], the IC50 was not above 100 nM. As for `C[C@@H](NC(=O)O[C@H]1CO[C@@H](c2cc(NC(=O)c3cc(OCC(F)F)nn3C)n[nH]2)C1)C1CC1` [Example 915], the IC50 was not above 100 nM. For `C[C@H](NC(=O)O[C@H]1CO[C@@H](c2cc(NC(=O)c3cc(OCC(F)F)nn3C)n[nH]2)C1)C1CC1` [Example 916], the IC50 was not above 100 nM.

Take `C[C@@H](NC(=O)O[C@H]1CO[C@@H](c2cc(NC(=O)c3cc(OCC(F)(F)F)nn3C)n[nH]2)C1)C1CC1` [Example 917]: the IC50 is not above 100 nM. Regarding `C[C@H](NC(=O)O[C@H]1CO[C@@H](c2cc(NC(=O)c3cc(OCC(F)(F)F)nn3C)n[nH]2)C1)C1CC1` [Example 918], the IC50 was not above 100 nM.

On to `C[C@H](NC(=O)O[C@@H]1CO[C@H](c2cc(NC(=O)c3cc(OCC(F)F)nn3C)n[nH]2)C1)C1CC1` [Example 919], for which the IC50 was not above 100 nM. Turning to `C[C@H](NC(=O)O[C@@H]1CO[C@H](c2cc(NC(=O)c3cc(OCC(F)(F)F)nn3C)n[nH]2)C1)C1CC1` [Example 920], the IC50 was not above 100 nM. Consider `COCc1cn2c(Nc3cc([C@@H]4C[C@H](OC(=O)NC5(C)CC5)CO4)[nH]n3)nccc2n1` [Example 921], for which the IC50 was not above 100 nM. On the same count and under the same terms, under `CC1(NC(=O)O[C@@H]2CO[C@H](c3cc(Nc4nccn5nc(COC(F)(F)F)cc45)n[nH]3)C2)CC1` [Example 922] stands not above 100 nM.
